# Reference: patent US20240390434A1, “PROBIOTIC ENHANCERS AND USES THEREOF” (Blis Technologies Limited, priority 2021, published 2024)
# Like-named read-outs stand apart in the source and are kept apart here.
# Experiments:
# [1] = system: salB; assay type: cell-based, S. salivarius K12; settings: K12
# Description: Method: CABCa agar plates were prepared either with or without 2.5% w/w raffinose, 0.5% w/w galactose, combined 2.5% w/w raffinose and 0.5% w/w galactose, 0.5% w/w glucose or 2.5% w/w glucose by the addition of 0.5% (w/v) calcium carbonate to solid CAB agar in bottles and then melted by autoclaving at 110° C. for 10 mins. Once cooled, filter sterilised solutions of the saccharides or distilled water were added and mixed and then 20 ml pipetted into petri dishes.
# A S. salivarius K12 raw ingredient suspension was prepared in PBS containing approx. 1×10^8cfu/ml. 100p of this suspension was spread evenly onto control and test agar plates. Plates were incubated at 37° C. with 5% CO2 for approx, 19 hrs.
# Bacterial growth from each plate was collected using a sterile cotton swab and resuspended into 1 ml PBS in a screw capped tube. The bacterial cells were then pelleted by centrifugation at 13,000 rpm for 1 minute at 4° C. The supernatant was removed, and the cell pellet was resuspended in 1 ml of TRIzol reagent. The bacterial cell suspension was transferred into a 2 ml screw-capped tube containing 0.1 mm Zirconia/silicon beads. […]
# The cDNA samples from K12 raw ingredient grown on the CABCa control plates and CABCa supplemented with the various saccharides were then analysed by qPCR for the levels of gene expression of the following genes: salA, salB, salQ and ureC. […]
# [2] = system: bacterial indicator strains; assay: Split plate inhibitory activity of K12 in commercial powder Daily Defence Junior; assay type: cell-based; settings: raffinose 2.5% w/w, galactose 0.5% w/w, or combination
# Description: Method: Formulations for testing were prepared as follows: • 1. Control: Commercial powder formulation (Daily Defence Junior) containing S. salivarius K12 • 2. Galactose 0.5% w/w was added to the commercial powder and mixed thoroughly to achieve a uniform mixture. • 3. Raffinose 2.5% w/w was added to the commercial powder and mixed thoroughly to achieve a uniform mixture.
# The following method was used to measure the inhibitory effect of S. salivarius K12 in the context of the powder formulations. Exactly 40 mL of 50° C. molten CAB agar containing 0.5% calcium carbonate (CABCa) was poured in agar plates (120×120 mm). Once the agar was set upon cooling, it was split in the middle and half of the agar gel was removed. The other half was left on the plate as Blank agar marked as side “A”. Approximately, 0.8 g of each combination (DDJ powder with (1) galactose, (2) raffinose or (3) combination of raffinose and galactose) was mixed with 1 mL of sterile distilled water and vortexed to produce a homogeneous suspension. […] The pH of the producer side was measured and adjusted to 6.5-7.5 by soaking into the agar a solution of 0.5 M sodium carbonate pH 11. […] The zone of inhibition of each indicator strain was measured (in mm) using a ruler. Results were also read using a macroscope to establish presence of small colonies or complete inhibition zones.
# [3] = system: S. pyogenes strains or other pathogens; assay: Inhibitory activity of K12 grown in M17 broth with saccharides; assay type: cell-based; settings: saccharide 0.83% or 2.5% w/v, vs control
# [4] = system: S. pyogenes M76; assay: Dose response deferred antagonism assay, producer K12; assay type: cell-based
# Description: (§1) 1-2 producer strain colonies were transferred from a stock plate into 900 μL of suspension solution using a fresh cotton swab. Following this, suspensions were vortexed, and a sample was inoculated onto solid culture media using a fresh cotton swab. The inoculation was a streak that runs diametrically across the agar plate in a 1.5 cm wide strip. The plate was then incubated. Following incubation all visible colonies were removed by swabbing them from the agar surface. The plates were then treated with chloroform by dispensing 2 ml of chloroform onto 4 cm×4 cm piece of cloth and sealing the inverted agar plate on top for 30 minutes. The plates were then air dried for 30 minutes following chloroforming. 1-2 indicator strain colonies were then transferred from a stock plate into complementary suspension solution. The suspensions were then vortexed, and a sample was inoculated onto the same agar surface. These samples were streaked in a perpendicular direction to the initial producer streak.
# (§2) Each indicator streak was prepared with fresh a suspension containing cells from a corresponding stock plate containing the indicator strain of interest. Indicator strains suspension samples were transferred using a fresh cotton swab. Results were measured by qualitatively reviewing the subsequent (if any) sizes of the zones of inhibition (ZOI) of indicator strain colony growth. A positive result is when there is a distinctive reduction or complete inhibition of indicator colony growth on the culture medium.
# (§3) CABCa agar plates containing various concentrations of saccharide were prepared according to the methods described in Method 1. Producer strains were transferred from stock agar plates into 900 μL THB using a fresh cotton swab. A plastic spread plater was cut to approximately 1.2 cm width and then dipped into ethanol and left to air dry to ensure sterility. A 100 μL sample of the producer strain suspension was then dispensed onto the agar surface in a straight line running diametrically across the agar surface in (approximately) 20 μL spots. The spots were spaced approximately 1.5 cm apart from each other. The plastic spreader was then used to evenly distribute the spots across the agar surface in a 1.5 cm wide strip. This step was taken to ensure an even producer streak was inoculated onto the agar surface and provided an approximate measure of the initial inoculum concentration. Separate plastic spreaders were used for samples containing different producer strains. The samples were left to soak into the agar surface until there was no visible liquid remaining on the agar surface (approximately 20 minutes). Following producer streak preparations, the deferred antagonism assay protocol was followed as per Method 2. Results were recorded by measuring the size of the zone of inhibition (ZOI) in mm.
# (§4) The results presented in FIG. 1 and FIG. 2 illustrate the change in ear, nose, and throat (ENT) microorganism indicator strain zone of inhibition sizes. When K12 was cultured in the presence of various concentrations of galactose the ZOI sizes for several of the ENTR indicator strains increased markedly from the control condition (FIG. 1). M. catarrhalis TW1 and TW2 display similar changes in the ZOI sizes across the various concentrations of galactose. The change in TW1 ZOI size peaks at 1.5% galactose(w/v) (12 mm) then decreases at 2.0% galactose (w/v), whereas the change of TW2 ZOI size peaks at 2.0% galactose (w/v) (11 mm). The change in L. lactis T-21 ZOI sizes trend upwards relative to the concentration of galactose present in the culture medium.
# [5] = system: L. lactis T-21; assay: as above; assay type: cell-based
# Description: as §1, §2, §3, §4
# [6] = system: M. catarrhalis TW2; assay: as above; assay type: cell-based; settings: peak
# Description: as §1, §2, §3, §4
# [7] = system: halitosis-causing gram-negative bacteria F. nucleatum, P. gingivalis and P. intermedia; assay: Deferred antagonism assay (anaerobic), producer M18; assay type: cell-based; settings: 2.5% w/w raffinose; or combination with 0.5% w/w galactose
# Description: Method: CABCa agar plates were prepared with or without 2.5% w/w raffinose, 0.5% w/w galactose or a combination of both saccharides by the addition of 0.5% (w/v) calcium carbonate to solid CAB agar in bottles and then melted by autoclaving at 110° C. for 10 mins. Once cooled, filter sterilised solutions of the saccharides or distilled water were added and mixed and then 20 ml pipetted into petri dishes.
# A deferred antagonism assay was conducted using K12 or M18 raw ingredient suspended in THB. This was spread as a 1.2 cm streak containing approximately 1-2×10^6 cfu down the middle of a CABCa control or CABCa galactose supplemented test plate. After 18 hrs growth at 37° C., 5% CO2 in air, bacterial growth was removed, and the pH of the agar in the initial streak was measured and adjusted to a pH of 6.5-7.5 using 0.5M sodium carbonate pH11 before sterilizing the agar surface using chloroform vapor. Bacterial test strains were suspended in THB and swabbed across the plates perpendicular to the initial streak and then the plates were incubated at 37° C. in an anaerobic jar containing an anaeroGen sachet for 4 days. Zones of inhibition for each test strain were then measured (mm).
SMILES,increase in gene expression of salB relative to no sugar control ([1]; 0.5% w/w sugar in CABCa agar) [fold],inhibitory activity of S. salivarius K12 in commercial powder vs control [2],inhibitory activity of K12 grown in presence of saccharide [3],change in M76 ZOI size ([4]; between 1.5% and 2.0% galactose) [mm],change in L. lactis T-21 ZOI sizes ([5]; relative to the concentration of galactose),change of TW2 ZOI size ([6]; 2.0% galactose (w/v)) [mm],increase in gene expression of salB relative to no sugar control ([1]; 2.5% w/w sugar in CABCa agar) [fold],antimicrobial activity of M18 against halitosis-causing bacteria [7],"change in ZOI size for S. pyogenes M76 ([4]; 1.5% raffinose (w/v), peak) [mm]",change in L. lactis ZOI size ([5]; 0.1% raffinose (w/v)) [mm],change in L. lactis ZOI size ([5]; 1.0% raffinose (w/v)) [mm],change in ZOI size M. catarrhalis TW2 ([6]; 2.0% (w/v) raffinose) [mm]
"O=C[C@H](O)[C@@H](O)[C@@H](O)[C@H](O)CO [Galactose, D-galactose]",641,increased,greater inhibitory activity,11,trend upwards,11,–,–,–,–,–,–
"OC[C@H]1O[C@H](OC[C@H]2O[C@H](O[C@]3(CO)O[C@H](CO)[C@@H](O)[C@@H]3O)[C@H](O)[C@@H](O)[C@@H]2O)[C@H](O)[C@@H](O)[C@H]1O [Raffinose, D-(+) Raffinose pentahydrate]",–,increased,greater inhibitory activity,–,–,–,241,inhibit some strains,13,15,16,13
